Source: paper PMC12445744, “Molecular docking to homology models of human and Trypanosoma brucei ERK8 that identified ortholog-specific inhibitors” (PLOS Neglected Tropical Diseases, 2025)
Where “and” joins values, the source holds several entries; their conditions need not be identical. Equal entries are not always repeated.

Target: T1, TbERK8 (Trypanosoma brucei brucei, UniProt Q38B88)
T1 sequence (Q38B88 1-442): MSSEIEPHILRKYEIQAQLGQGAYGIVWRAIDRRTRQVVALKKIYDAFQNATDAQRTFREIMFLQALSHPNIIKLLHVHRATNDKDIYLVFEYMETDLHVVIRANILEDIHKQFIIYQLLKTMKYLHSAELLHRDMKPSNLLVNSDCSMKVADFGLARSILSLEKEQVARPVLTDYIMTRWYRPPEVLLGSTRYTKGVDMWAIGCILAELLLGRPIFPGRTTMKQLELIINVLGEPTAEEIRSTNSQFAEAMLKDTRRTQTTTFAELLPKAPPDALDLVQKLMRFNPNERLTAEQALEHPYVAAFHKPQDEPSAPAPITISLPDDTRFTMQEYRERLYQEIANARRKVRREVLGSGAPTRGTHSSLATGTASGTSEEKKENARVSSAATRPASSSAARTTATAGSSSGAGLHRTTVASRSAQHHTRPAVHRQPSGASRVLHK
Assay: Luciferase-based kinase inhibition assay (ATP luminescence), GST-tagged TbERK8 with MBP substrate
Assay type: biochemical
Set-up: raw luminescence, TbERK8: unit of the concentration uncertain
Conditions: for raw luminescence, TbERK8: replicate wells; for raw luminescence, TbERK8 / Luminescence Raw (Kinase-Glo): listed as Sil; for Luminescence Raw (Kinase-Glo): TbERK8

CCCc1nn(C)c2c(=O)[nH]c(-c3cc(S(=O)(=O)N4CCN(C)CC4)ccc3OCC)nc12 [Sildenafil]
IC50: 9 mM | raw luminescence, TbERK8 (0.00015 (unit uncertain) compound, sheet ADP_ATP_glo081724 (3)): 192.26 RLU and 196.784 RLU and 144.761 RLU | raw luminescence, TbERK8 (0.00015 (unit uncertain) compound, sheet Kinase_glo 08142024 (2)): 642.503 RLU and 676.319 RLU and 570.644 RLU | raw luminescence, TbERK8 (0.00015 (unit uncertain) compound, sheet Kinase_glo_080924_IFPS (2)): 1471.05 RLU and 1414.9 RLU and 1313.84 RLU | raw luminescence, TbERK8 (0.00061 (unit uncertain) compound, sheet ADP_ATP_glo081724 (3)): 122.142 RLU and 174.165 RLU and 104.047 RLU | raw luminescence, TbERK8 (0.00061 (unit uncertain) compound, sheet Kinase_glo 08142024 (2)): 718.589 RLU and 748.177 RLU and 712.248 RLU | raw luminescence, TbERK8 (0.00061 (unit uncertain) compound, sheet Kinase_glo_080924_IFPS (2)): 788.303 RLU and 923.056 RLU and 783.811 RLU | raw luminescence, TbERK8 (0.00244 (unit uncertain) compound, sheet ADP_ATP_glo081724 (3)): 246.545 RLU and 205.831 RLU and 226.188 RLU | raw luminescence, TbERK8 (0.00244 (unit uncertain) compound, sheet Kinase_glo 08142024 (2)): 701.681 RLU and 748.177 RLU and 629.822 RLU | raw luminescence, TbERK8 (0.00244 (unit uncertain) compound, sheet Kinase_glo_080924_IFPS (2)): 458.159 RLU and 390.783 RLU and 375.062 RLU | raw luminescence, TbERK8 (0.00977 (unit uncertain) compound, sheet ADP_ATP_glo081724 (3)): 235.236 RLU and 187.736 RLU and 135.713 RLU | raw luminescence, TbERK8 (0.00977 (unit uncertain) compound, sheet Kinase_glo 08142024 (2)): 820.036 RLU and 841.171 RLU and 775.653 RLU | raw luminescence, TbERK8 (0.00977 (unit uncertain) compound, sheet Kinase_glo_080924_IFPS (2)): 660.288 RLU and 590.666 RLU and 547.994 RLU | raw luminescence, TbERK8 (0.03906 (unit uncertain) compound, sheet ADP_ATP_glo081724 (3)): 210.355 RLU and 205.831 RLU and 187.736 RLU | raw luminescence, TbERK8 (0.03906 (unit uncertain) compound, sheet Kinase_glo 08142024 (2)): 526.26 RLU and 661.524 RLU and 672.092 RLU | raw luminescence, TbERK8 (0.03906 (unit uncertain) compound, sheet Kinase_glo_080924_IFPS (2)): 981.449 RLU and 954.498 RLU and 819.745 RLU | raw luminescence, TbERK8 (0.15625 (unit uncertain) compound, sheet ADP_ATP_glo081724 (3)): 341.544 RLU and 352.854 RLU and 287.259 RLU | raw luminescence, TbERK8 (0.15625 (unit uncertain) compound, sheet Kinase_glo 08142024 (2)): 849.625 RLU and 830.604 RLU and 743.951 RLU | raw luminescence, TbERK8 (0.15625 (unit uncertain) compound, sheet Kinase_glo_080924_IFPS (2)): 1302.61 RLU and 956.744 RLU and 1116.2 RLU | raw luminescence, TbERK8 (0.62500 (unit uncertain) compound, sheet ADP_ATP_glo081724 (3)): 653.684 RLU and 678.565 RLU and 508.924 RLU | raw luminescence, TbERK8 (0.62500 (unit uncertain) compound, sheet Kinase_glo 08142024 (2)): 1502.69 RLU and 1635.85 RLU and 1447.74 RLU | raw luminescence, TbERK8 (0.62500 (unit uncertain) compound, sheet Kinase_glo_080924_IFPS (2)): 10771.2 RLU and 11665.1 RLU and 9012.71 RLU | raw luminescence, TbERK8 (2.50000 (unit uncertain) compound, sheet ADP_ATP_glo081724 (3)): 9775.86 RLU and 9642.41 RLU and 4501.15 RLU | raw luminescence, TbERK8 (2.50000 (unit uncertain) compound, sheet Kinase_glo 08142024 (2)): 30745 RLU and 32114.6 RLU and 32366.1 RLU | raw luminescence, TbERK8 (2.50000 (unit uncertain) compound, sheet Kinase_glo_080924_IFPS (2)): 19880.5 RLU and 19849.1 RLU and 15795.3 RLU | raw luminescence, TbERK8 (10.00000 (unit uncertain) compound, sheet ADP_ATP_glo081724 (3)): 17380.3 RLU and 17721.9 RLU and 17968.4 RLU | raw luminescence, TbERK8 (10.00000 (unit uncertain) compound, sheet Kinase_glo 08142024 (2)): 40177.6 RLU (2×) and 40048.6 RLU | raw luminescence, TbERK8 (10.00000 (unit uncertain) compound, sheet Kinase_glo_080924_IFPS (2), signal = ATP left): 19548.1 RLU and 21185.4 RLU and 21443.6 RLU | Luminescence Raw (Kinase-Glo) (inhibitor 0.00976562 mM, sheet Sil_Pred3, read 3): 36049.4 and 37274.6 and 36862.3 | Luminescence Raw (Kinase-Glo) (inhibitor 0.0195312 mM, sheet Sil_Pred3, read 3): 31279.7 and 32797.7 and 32247.2 | Luminescence Raw (Kinase-Glo) (inhibitor 0.0390625 mM, sheet Sil_Pred3, read 3): 27320.5 and 29281.3 and 28655.8 | Luminescence Raw (Kinase-Glo) (inhibitor 0.078125 mM, sheet Sil_Pred3, read 3): 38799.7 and 40144.4 and 45260.9 | Luminescence Raw (Kinase-Glo) (inhibitor 0.15625 mM, sheet Sil_Pred3, read 3): 29028.3 and 32258.9 and 32301.1 | Luminescence Raw (Kinase-Glo) (inhibitor 0.3125 mM, sheet Sil_Pred3, read 3): 27939 and 30286.4 and 29686.6 | Luminescence Raw (Kinase-Glo) (inhibitor 0.625 mM, sheet Sil_Pred3, read 3): 36091.6 and 38406.1 and 37640.1 | Luminescence Raw (Kinase-Glo) (inhibitor 0.00976562, sheet Sil_Pred1, read 1): 40167.3 and 42010.2 and 38672.9 | Luminescence Raw (Kinase-Glo) (inhibitor 0.00976562, sheet Sil_Pred2, read 2): 37219 and 38747.1 and 37019 | Luminescence Raw (Kinase-Glo) (inhibitor 0.0195312, sheet Sil_Pred1, read 1): 34760.2 and 36412.8 and 34705.2 | Luminescence Raw (Kinase-Glo) (inhibitor 0.0195312, sheet Sil_Pred2, read 2): 32386.1 and 33904.8 and 32825.7 | Luminescence Raw (Kinase-Glo) (inhibitor 0.0390625, sheet Sil_Pred1, read 1): 30029.2 and 32598.7 and 32204.5 | Luminescence Raw (Kinase-Glo) (inhibitor 0.0390625, sheet Sil_Pred2, read 2): 28304.4 and 29974.3 and 30192.9 | Luminescence Raw (Kinase-Glo) (inhibitor 0.078125, sheet Sil_Pred1, read 1): 43786.6 and 44925.8 and 48645.9 | Luminescence Raw (Kinase-Glo) (inhibitor 0.078125, sheet Sil_Pred2, read 2): 39158.7 and 41749.6 and 45619.7 | Luminescence Raw (Kinase-Glo) (inhibitor 0.15625, sheet Sil_Pred1, read 1): 32447.4 and 35952.1 and 35828.3 | Luminescence Raw (Kinase-Glo) (inhibitor 0.15625, sheet Sil_Pred2, read 2): 29879 and 33446.7 and 32672.2 | Luminescence Raw (Kinase-Glo) (inhibitor 0.3125, sheet Sil_Pred1, read 1): 31858.4 and 33536.2 and 32552.9 | Luminescence Raw (Kinase-Glo) (inhibitor 0.3125, sheet Sil_Pred2, read 2): 29706.8 and 31355.8 and 30890.7 | Luminescence Raw (Kinase-Glo) (inhibitor 0.625, sheet Sil_Pred1, read 1): 41361.5 and 43495.5 and 43241.1 | Luminescence Raw (Kinase-Glo) (inhibitor 0.625, sheet Sil_Pred2, read 2): 37112 and 39789 and 39512.2
